The values below come from patent publication US10981926B2 (Janssen Pharmaceutica NV, priority 2016, dated 2021).

Common to all, as to assay type: cell-based
The target of test [1] is T1, F876L mutant Androgen Receptor (AR-F876L) (Homo sapiens (Human), UniProt P10275, F877L). Nature of the test: LNCaP-AR-F876L AG reporter assay (agonist mode). The note with it: for Emax: read-out: LNCaP-AR-F876L AG MAX % Stim; for EC50 / LNCaP-AR-F876L AG pEC50: pEC50 = −Log10(EC50 in Molar); for EC50: read-out: LNCaP-AR-F876L AG pEC50 (converted).
T1 sequence (P10275 whole entry F877L): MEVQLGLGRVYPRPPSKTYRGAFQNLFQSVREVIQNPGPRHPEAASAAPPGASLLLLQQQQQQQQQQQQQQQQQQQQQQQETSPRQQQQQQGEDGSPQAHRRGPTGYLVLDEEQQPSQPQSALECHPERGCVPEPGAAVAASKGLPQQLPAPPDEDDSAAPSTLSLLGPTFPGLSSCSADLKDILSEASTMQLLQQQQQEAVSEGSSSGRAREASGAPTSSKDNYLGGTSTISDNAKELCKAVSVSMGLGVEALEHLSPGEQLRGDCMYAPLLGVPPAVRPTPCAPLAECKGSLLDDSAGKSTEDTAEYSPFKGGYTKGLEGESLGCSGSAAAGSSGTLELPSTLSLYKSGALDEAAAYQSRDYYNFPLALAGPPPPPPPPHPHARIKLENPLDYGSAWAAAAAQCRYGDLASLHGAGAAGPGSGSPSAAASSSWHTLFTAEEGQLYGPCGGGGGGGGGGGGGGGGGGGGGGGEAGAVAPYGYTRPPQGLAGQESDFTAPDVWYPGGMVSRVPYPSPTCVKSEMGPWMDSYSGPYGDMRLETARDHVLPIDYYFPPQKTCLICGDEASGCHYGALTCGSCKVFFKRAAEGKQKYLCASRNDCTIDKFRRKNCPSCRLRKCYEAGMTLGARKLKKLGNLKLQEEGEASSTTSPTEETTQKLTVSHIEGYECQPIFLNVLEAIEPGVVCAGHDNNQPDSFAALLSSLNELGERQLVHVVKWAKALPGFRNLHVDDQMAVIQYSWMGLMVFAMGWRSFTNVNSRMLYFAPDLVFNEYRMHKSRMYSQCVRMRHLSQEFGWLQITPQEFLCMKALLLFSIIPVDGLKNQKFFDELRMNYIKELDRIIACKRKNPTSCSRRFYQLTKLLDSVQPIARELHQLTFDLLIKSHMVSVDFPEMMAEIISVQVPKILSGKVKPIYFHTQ
For test [2], the target named is T1, F876L mutant Androgen Receptor (AR-F876L). Nature of the test: LNCaP-AR-F876L ANT reporter assay (antagonist mode). The note with it: for Emax: read-out: LNCaP-AR-F876L ANT MAX % Inh; for IC50 / LNCaP-AR-F876L ANT pIC50: pIC50 = −Log10(IC50 in Molar); for IC50: read-out: LNCaP-AR-F876L ANT pIC50 (converted).
Test [3] addresses T2, wild-type Androgen Receptor (AR-wt) (Homo sapiens (Human), UniProt P10275). The experiment in a line: LNCaP-AR-wt AG reporter assay (agonist mode). The note with it: for Emax: read-out: LNCaP-AR-wt AG MAX % Stim; for EC50 / LNCaP-AR-wt AG pEC50: pEC50 = −Log10(EC50 in Molar); for EC50: read-out: LNCaP-AR-wt AG pEC50 (converted).
For test [4], the target named is T2, wild-type Androgen Receptor (AR-wt). Nature of the test: LNCaP-AR-wt ANT reporter assay (antagonist mode). The note with it: for Emax: read-out: LNCaP-AR-wt ANT MAX % Inh; for IC50 / LNCaP-AR-wt ANT pIC50: pIC50 = −Log10(IC50 in Molar); for IC50: read-out: LNCaP-AR-wt ANT pIC50 (converted).
[5] abbreviates: agonist mode, maximum % stimulation over tested concentration range.
The mark [6] stands for this setting: antagonist mode, maximum % inhibition of R1881 control response over tested concentration range.
[7] abbreviates: maximum % stimulation (agonist response) over the tested concentration range.
Setting [8] is: maximum % inhibition of R1881 control response over the tested concentration range.

T2 sequence (P10275 whole entry): as the sequence (P10275 whole entry F877L) above, with L877F counted along it

Consider `CN1CCC12CC(Oc1ccc(N3C(=S)N(c4cnc(C#N)c(C(F)(F)F)c4)C(=O)C34CCC4)cn1)C2` (stereo not drawn) [Cpd 193, 5-[8-[6-[(3-methyl-3-azaspiro[3.3]heptan-6-yl)oxy]-3-pyridyl]-5-oxo-7-thioxo-6,8-diazaspiro[3.4]octan-6-yl]-3-(trifluoromethyl)pyridine-2-carbonitrile], for which the Emax in test [1] (setting [5]) is 0.4%; in test [2] (setting [6]) it was 101%; in test [3] (setting [5]) it was 0.1%; in test [4] (setting [6]), 101%. The EC50 in test [1] (agonist mode) and in test [3] (agonist mode) was more than 15100 nM throughout. Besides, the results for the IC50 in test [2] (antagonist mode) and in test [4] (antagonist mode) were 191 nM and 229 nM, respectively.
`Cn1c(CCO)nc2cc(N3C(=S)N(c4cnc(C#N)c(C(F)(F)F)c4)C(=O)C34CCC4)ccc21` [Cpd 255, 5-[8-[2-(2-hydroxyethyl)-1-methyl-benzimidazol-5-yl]-5-oxo-7-thioxo-6,8-diazaspiro[3.4]octan-6-yl]-3-(trifluoromethyl)pyridine-2-carbonitrile]: the Emax in test [1] (setting [5]) came to 0.1%; in test [2] (setting [6]), 99%; in test [3] (setting [5]), 0.4%; in test [4] (setting [6]), 94.7%. Besides, the EC50 in test [1] (agonist mode) and in test [3] (agonist mode) was more than 15100 nM in each case. In addition, the IC50 was 2750 nM in test [2] (antagonist mode) and 2510 nM in test [4] (antagonist mode).
Consider `Cc1cc(N2C(=O)C3(CCC3)N(c3ccc(CC4CCNCC4)cc3)C2=S)cnc1C#N` [Cpd 235, 3-methyl-5-[5-oxo-8-[4-(4-piperidylmethyl)phenyl]-7-thioxo-6,8-diazaspiro[3 4]octan-6-yl]pyridine-2-carbonitrile], for which the Emax in test [1] (setting [5]) was determined as 0.1%; in test [2] (setting [6]), 101%; in test [3] (setting [5]), 0.2%; in test [4] (setting [6]), 101%. Besides, the EC50 in test [1] (agonist mode) and in test [3] (agonist mode) was more than 15100 nM each time. Further, the results for the IC50 in test [2] (antagonist mode) and in test [4] (antagonist mode) were 562 nM and 1070 nM, respectively.
`CNC(=O)Cc1ccc(N2C(=S)N(c3cnc(C#N)c(C)c3)C(=O)C23CCC3)cc1` [Cpd 8, 2-{4-[7-(6-cyano-5-methyl(3-pyridyl))-8-oxo-6-thioxo-5,7-diazaspiro[3.4]oct-5-yl]phenyl}-N-methylacetamide]: the EC50 in test [1] (agonist mode) and in test [3] (agonist mode) was more than 15100 nM each time. For the same compound, the Emax in test [1] (setting [7]) was -0.1%; in test [2] (setting [8]) it was 96%; in test [3] (setting [7]) it was 0.4%; in test [4] (setting [8]) it was 86.6%. For the same compound, the IC50 in test [2] (antagonist mode) was 1150 nM; in test [4] (antagonist mode), 1170 nM.
For `CN1CCC(Cn2ncc3cc(N4C(=S)N(c5cnc(C#N)c(C(F)(F)F)c5)C(=O)C45CCC5)ccc32)CC1` [Cpd 132, 5-(5-(1-((1-methylpiperidin-4-yl)methyl)-1H-indazol-5-yl)-8-oxo-6-thioxo-5,7-diazaspiro[3.4]octan-7-yl)-3-(trifluoromethyl)picolinonitrile], the EC50 in test [1] (agonist mode) and in test [3] (agonist mode) was more than 15100 nM each time. Also, the Emax stood at 0.9% in test [1] (setting [7]), 98.7% in test [2] (setting [8]), 0.5% in test [3] (setting [7]) and 101% in test [4] (setting [8]). In addition, the IC50 was 148 nM in test [2] (antagonist mode) and 372 nM in test [4] (antagonist mode).
For `CN1CCc2cc(N3C(=S)N(c4cnc(C#N)c(C(F)(F)F)c4)C(=O)C34CCC4)ccc2C1` [Cpd 125, 5-[8-(2-methyl-3,4-dihydro-1H-isoquinolin-6-yl)-5-oxo-7-thioxo-6,8-diazaspiro[3.4]octan-6-yl]-3-(trifluoromethyl)pyridine-2-carbonitrile], the EC50 in test [1] (agonist mode) and in test [3] (agonist mode) was more than 15100 nM throughout. Further, the Emax was determined as 0% in test [1] (setting [7]), 98.1% in test [2] (setting [8]), 0.6% in test [3] (setting [7]) and 99.5% in test [4] (setting [8]). Moreover, the IC50 was 1580 nM in test [2] (antagonist mode) and 2690 nM in test [4] (antagonist mode).
`CN1CCC(n2cc3ccc(N4C(=S)N(c5cnc(C#N)c(C(F)(F)F)c5)C(=O)C45CCC5)cc3n2)CC1` [Cpd 199, 5-[8-[2-(1-methyl-4-piperidyl)indazol-6-yl]-5-oxo-7-thioxo-6,8-diazaspiro[3.4]octan-6-yl]-3-(trifluoromethyl)pyridine-2-carbonitrile]: the Emax in test [1] (setting [5]) is 0.9%; in test [2] (setting [6]) it was 102%; in test [3] (setting [5]), -0.2%; in test [4] (setting [6]), 88.9%. The EC50 in test [1] (agonist mode) and in test [3] (agonist mode) was more than 15100 nM in each case. For the same compound, the IC50 in test [2] (antagonist mode) was 1510 nM; in test [4] (antagonist mode) it was 1620 nM.
Turning to `CN1CCC(CNC(=O)c2ccc(N3C(=S)N(c4cnc(C#N)c(C(F)(F)F)c4)C(=O)C34CCC4)cc2F)CC1` [Cpd 201, 4-[6-[6-cyano-5-(trifluoromethyl)-3-pyridyl]-5-oxo-7-thioxo-6,8-diazaspiro[3.4]octan-8-yl]-2-fluoro-N-[(1-methyl-4-piperidyl)methyl]benzamide], the Emax in test [1] (setting [5]) is 0%; in test [2] (setting [6]), 101%; in test [3] (setting [5]) it was -0.3%; in test [4] (setting [6]) it was 101%. For the same compound, the EC50 in test [1] (agonist mode) and in test [3] (agonist mode) was more than 15100 nM throughout. For the same compound, the results for the IC50 in test [2] (antagonist mode) and in test [4] (antagonist mode) were 214 nM and 355 nM, respectively.
Turning to “3-chloro-5-[8-[1-(2-methoxyethyl)indazol-5-yl]-5-oxo-7-thioxo-6,8-diazaspiro[3.4]octan-6-yl]pyridine-2-carbonitrile [Cpd 171]”, the “LNCaP-AR-F876L AG pEC50” value in test [1] (agonist mode) is less than 4.82. Also, in test [1] (setting [7]), the “LNCaP-AR-F876L AG MAX % Stim” value was found to be 0.1%. In addition, in test [2] (antagonist mode), the “LNCaP-AR-F876L ANT pIC50” value is on record as 6.80. Besides, the “LNCaP-AR-F876L ANT MAX % Inh” value in test [2] (setting [8]) is given as 100.8%. In test [3] (agonist mode), the “LNCaP-AR-wt AG pEC50” value is given as less than 4.82. Further, the “LNCaP-AR-wt AG MAX % Stim” value in test [3] (setting [7]) was 0.2%. Moreover, the “LNCaP-AR-wt ANT pIC50” value in test [4] (antagonist mode) was 6.45. Also, in test [4] (setting [8]), the “LNCaP-AR-wt ANT MAX % Inh” value is listed as 101.3%.
For the compound `CC1(Oc2ccc(N3C(=S)N(c4cnc(C#N)c(C(F)(F)F)c4)C(=O)C34CCC4)cc2)CCNCC1` [Cpd 140, 5-[8-[4-[(4-methyl-4-piperidyl)oxy]phenyl]-5-oxo-7-thioxo-6,8-diazaspiro[3.4]octan-6-yl]-3-(trifluoromethyl)pyridine-2-carbonitrile], the EC50 in test [1] (agonist mode) and in test [3] (agonist mode) was more than 15100 nM each time. Moreover, the Emax in test [1] (setting [7]) turned out to be 0%; in test [2] (setting [8]) it was 99.5%; in test [3] (setting [7]), 0.3%; in test [4] (setting [8]) it was 99.9%. For the same compound, the results for the IC50 in test [2] (antagonist mode) and in test [4] (antagonist mode) were 339 nM and 1000 nM, respectively.
As for `CC(C)(C)OC(=O)N1C2CCC1CC(c1ccc(N3C(=S)N(c4cnc(C#N)c(C(F)(F)F)c4)C(=O)C34CCC4)cc1)C2` (stereo not drawn) [Cpd 113, tert-butyl 3-[4-[6-[6-cyano-5-(trifluoromethyl)-3-pyridyl]-5-oxo-7-thioxo-6,8-diazaspiro[3.4]octan-8-yl]phenyl]-8-azabicyclo[3.2.1]octane-8-carboxylate], in test [1] (agonist mode), the “LNCaP-AR-F876L AG pEC50” value is given as less than 4.82. Besides, the Emax is 1.8% in test [1] (setting [7]), 83.6% in test [2] (setting [8]), 0.3% in test [3] (setting [7]) and 89% in test [4] (setting [8]). Also, the “LNCaP-AR-F876L ANT pIC50” value in test [2] (antagonist mode) amounted to 6.26. Further, the “LNCaP-AR-wt AG pEC50” value in test [3] (agonist mode) is on record as less than 4.82. The “LNCaP-AR-wt ANT pIC50” value in test [4] (antagonist mode) is recorded as 6.35.
Regarding `CC(C)(C)OC(=O)N1CCC(CNC(=O)c2ccc(N3C(=S)N(c4cnc(C#N)c(C(F)(F)F)c4)C(=O)C34CCC4)cc2)CC1` [Cpd 46, tert-butyl 4-[[[4-[6-[6-cyano-5-(trifluoromethyl)-3-pyridyl]-5-oxo-7-thioxo-6,8-diazaspiro[3.4]octan-8-yl]benzoyl]amino]methyl]piperidine-1-carboxylate], the EC50 in test [1] (agonist mode) and in test [3] (agonist mode) was more than 15100 nM each time. For the same compound, the Emax in test [1] (setting [7]) amounted to 0.3%; in test [2] (setting [8]), 97.6%; in test [3] (setting [7]), 1.1%; in test [4] (setting [8]), 101%. The values for the IC50 in test [2] (antagonist mode) and in test [4] (antagonist mode) were 110 nM and 219 nM, respectively.
As to `COc1cc(N2C(=O)C3(CCC3)N(c3ccc(CN4CCNCC4)cc3)C2=S)cnc1C#N` [Cpd 229, 3-methoxy-5-[5-oxo-8-[4-(piperazin-1-ylmethyl)phenyl]-7-thioxo-6,8-diazaspiro[3.4]octan-6-yl]pyridine-2-carbonitrile], the Emax in test [1] (setting [5]) came out at 0%; in test [2] (setting [6]), 101%; in test [3] (setting [5]), 0%. For the same compound, the EC50 in test [1] (agonist mode) and in test [3] (agonist mode) was more than 15100 nM throughout. In addition, in test [2] (antagonist mode), the IC50 was 129 nM.
